Publication PMC4760952, “Structural basis of interprotein electron transfer in bacterial sulfite oxidation” (eLife, 2015)

Molecular target: T1, SorT (Sinorhizobium meliloti, UniProt Q92M24)
T1 construct: gene SMc04049; recombinant periplasmic SorT, purified as in Low et al. 2011; homodimer; 33 N-terminal residues not seen in the complex crystal
T1 sequence (Q92M24 32-399): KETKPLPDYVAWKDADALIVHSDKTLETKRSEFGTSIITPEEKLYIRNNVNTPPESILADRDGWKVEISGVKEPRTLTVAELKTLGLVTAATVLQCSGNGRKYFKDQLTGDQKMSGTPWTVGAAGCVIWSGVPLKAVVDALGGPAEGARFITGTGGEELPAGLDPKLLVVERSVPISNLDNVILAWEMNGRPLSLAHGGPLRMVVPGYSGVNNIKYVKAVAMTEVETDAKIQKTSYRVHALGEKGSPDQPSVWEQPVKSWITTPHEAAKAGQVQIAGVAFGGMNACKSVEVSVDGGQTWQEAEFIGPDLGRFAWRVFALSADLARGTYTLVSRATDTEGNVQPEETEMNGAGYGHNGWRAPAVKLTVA
Experiment: sulfite dehydrogenase assay, SorU reduction at […] nm
Format: biochemical
Settings: electron acceptor SorU

## O=S(O)O [sulfite]
  sulfite dehydrogenase assay, SorU reduction at 550 nm: Sulfite dehydrogenase enzyme assays were carried out as described previously
